Here are results for twelve molecules from patent US20260242419A1, “A CYCLIC PEPTIDE FOR TRAPPING INTERLEUKIN-1 BETA” (Merck Sharp & Dohme LLC, priority 2023, published 2026).

SMILES strings stand for the structures. Starred links: 1 amine or outer side, 2 acyl side, 3 side chain; linkers in the order of their positions; H or OH if unused. Non-standard residues stand in square brackets, D forms with d. Residues, ends and D or L forms follow the SMILES beside them. dPro(4R-(4-pyridylmethyl)) = O=C(O)[C@H]1C[C@@H](Cc2ccncc2)CN1; Ala(piperidin-4-yl) = O=C([C@H](CC1CCN([*:3])CC1)N[*:1])[*:2]; Trp(βS-Me,4-F) = C[C@@H](c1c[nH]c2cccc(F)c12)[C@H](N)C(=O)O; Bip(4'-COOH) = N[C@@H](Cc1ccc(-c2ccc(C(=O)O)cc2)cc1)C(=O)O; Ala(1-bicyclo(1.1.1)pentyl) = N[C@@H](CC12CC(C1)C2)C(=O)O; dPro(4R-Bzl(4-F)) = O=C(O)[C@H]1C[C@@H](Cc2ccc(F)cc2)CN1; Ala(morpholin-4-yl) = N[C@@H](CN1CCOCC1)C(=O)O; Ala(piperazin-1-yl) = N[C@@H](CN1CCNCC1)C(=O)O; Ala(pyrimidin-5-yl) = N[C@@H](Cc1cncnc1)C(=O)O; Phe(4-COOH) = N[C@@H](Cc1ccc(C(=O)O)cc1)C(=O)O; Pro(cis-4-F) = O=C(O)[C@@H]1C[C@H](F)CN1; cisHyp = O=C(O)[C@@H]1C[C@H](O)CN1; d(αMeD) = C[C@@](N)(CC(=O)O)C(=O)O; 4Pal = N[C@@H](Cc1ccncc1)C(=O)O; Cba = N[C@@H](CC1CCC1)C(=O)O; αMeK = C[C@](N)(CCCCN)C(=O)O; Dab = NCC[C@H](N)C(=O)O; Aib = CC(C)(N)C(=O)O

The experiment deals with T1, IL-1β (Homo sapiens, UniProt P01584).
T1 construct: purchased BioLegend 579404
T1 sequence (P01584 117-269): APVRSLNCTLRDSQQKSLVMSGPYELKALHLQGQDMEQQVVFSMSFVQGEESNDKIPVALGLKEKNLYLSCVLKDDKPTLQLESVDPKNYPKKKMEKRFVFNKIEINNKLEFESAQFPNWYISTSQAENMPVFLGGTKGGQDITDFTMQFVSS
In words: IL-6 assay in MRC5 cells: inhibition of IL-1β induced IL-6 secretion (AlphaLISA). The format is cell-based. Conditions: inhibition of IL-1β induced IL-6 secretion in MRC5 cells; read-out: MRC5 IC50. The procedure, abridged:
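Compound was pre-incubated 1 h at ambient temperature with recombinant human IL-1β at 2λ EC80 before adding human lung fibroblast MRC5 cells (3000/well) in EMEM with 0.025% BSA. After overnight culture at 37 °C, 5% CO2, secreted IL-6 in conditioned medium was measured by AlphaLISA; IC50 from 4-parameter logistic fits.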
A word on the IC50: it is the concentration that inhibits the measured activity by half. As for `C[C@@H](c1c[nH]c2cccc(F)c12)[C@@H]1NC(=O)[C@@H]2C[C@H](O)CN2C(=O)CNC(=O)[C@H](Cc2ccc(C(=O)O)cc2)NC(=O)[C@H](CC23CC(C2)C3)NC(=O)[C@H](Cc2ccc(-c3ccc(C(=O)O)cc3)cc2)NC(=O)[C@H]2C[C@@H](Cc3ccncc3)CN2C(=O)CNC(=O)[C@H](CO)NC(=O)[C@H](CCC(N)=O)NC(=O)[C@H](Cc2cncnc2)NC(=O)[C@@](C)(CC(=O)O)NC(=O)[C@H](Cc2c[nH]c3ccccc23)NC(=O)[C@H](CO)NC(=O)C(C)(C)NC1=O` [Example 157] (cyclo([Bip(4'-COOH)][Ala(1-bicyclo(1.1.1)pentyl)][Phe(4-COOH)]G[cisHyp][Trp(βS-Me,4-F)][Aib]SW[d(αMeD)][Ala(pyrimidin-5-yl)]QSG[dPro(4R-(4-pyridylmethyl))])), the IC50 was found to be 0.038 nM.

Take `C[C@@H](c1c[nH]c2cccc(F)c12)[C@@H]1NC(=O)[C@@H]2C[C@H](F)CN2C(=O)CNC(=O)[C@H](Cc2ccc(C(=O)O)cc2)NC(=O)[C@H](CC23CC(C2)C3)NC(=O)[C@H](Cc2ccc(-c3ccc(C(=O)O)cc3)cc2)NC(=O)[C@H]2C[C@@H](Cc3ccncc3)CN2C(=O)CNC(=O)[C@H](CO)NC(=O)[C@H](CCC(N)=O)NC(=O)[C@H](Cc2cncnc2)NC(=O)[C@@](C)(CC(=O)O)NC(=O)[C@H](Cc2c[nH]c3ccccc23)NC(=O)[C@H](CO)NC(=O)C(C)(C)NC1=O` [Example 158] (cyclo([Bip(4'-COOH)][Ala(1-bicyclo(1.1.1)pentyl)][Phe(4-COOH)]G[Pro(cis-4-F)][Trp(βS-Me,4-F)][Aib]SW[d(αMeD)][Ala(pyrimidin-5-yl)]QSG[dPro(4R-(4-pyridylmethyl))])): the IC50 worked out at 0.013 nM.

`C[C@@H](c1c[nH]c2cccc(F)c12)[C@@H]1NC(=O)[C@@H]2C[C@H](O)CN2C(=O)CNC(=O)[C@H](Cc2ccc(C(=O)O)cc2)NC(=O)[C@H](Cc2ccncc2)NC(=O)[C@H](Cc2ccc(-c3ccc(C(=O)O)cc3)cc2)NC(=O)[C@H]2C[C@@H](Cc3ccncc3)CN2C(=O)CNC(=O)[C@H](CCN)NC(=O)[C@H](CCC(N)=O)NC(=O)[C@H](Cc2cncnc2)NC(=O)[C@@](C)(CC(=O)O)NC(=O)[C@H](Cc2c[nH]c3ccccc23)NC(=O)[C@H](CO)NC(=O)C(C)(C)NC1=O` [Example 159] (cyclo([Bip(4'-COOH)][4Pal][Phe(4-COOH)]G[cisHyp][Trp(βS-Me,4-F)][Aib]SW[d(αMeD)][Ala(pyrimidin-5-yl)]Q[Dab]G[dPro(4R-(4-pyridylmethyl))])): the concentration for half-maximal inhibition (IC50) came out at 0.013 nM.

Regarding `C[C@@H](c1c[nH]c2cccc(F)c12)[C@@H]1NC(=O)[C@@H]2C[C@H](O)CN2C(=O)CNC(=O)[C@H](Cc2ccc(C(=O)O)cc2)NC(=O)[C@H](CC23CC(C2)C3)NC(=O)[C@H](Cc2ccc(-c3ccc(C(=O)O)cc3)cc2)NC(=O)[C@H]2C[C@@H](Cc3ccncc3)CN2C(=O)CNC(=O)[C@H](CCN)NC(=O)[C@H](CCC(N)=O)NC(=O)[C@H](Cc2cncnc2)NC(=O)[C@@](C)(CC(=O)O)NC(=O)[C@H](Cc2c[nH]c3ccccc23)NC(=O)[C@H](CO)NC(=O)C(C)(C)NC1=O` [Example 160] (cyclo([Bip(4'-COOH)][Ala(1-bicyclo(1.1.1)pentyl)][Phe(4-COOH)]G[cisHyp][Trp(βS-Me,4-F)][Aib]SW[d(αMeD)][Ala(pyrimidin-5-yl)]Q[Dab]G[dPro(4R-(4-pyridylmethyl))])), the IC50 was determined as 0.023 nM.

As to `C[C@@H](c1c[nH]c2cccc(F)c12)[C@@H]1NC(=O)[C@@H]2C[C@H](O)CN2C(=O)CNC(=O)[C@H](Cc2ccc(C(=O)O)cc2)NC(=O)[C@H](Cc2ccncc2)NC(=O)[C@H](Cc2ccc(-c3ccc(C(=O)O)cc3)cc2)NC(=O)[C@H]2C[C@@H](Cc3ccncc3)CN2C(=O)CNC(=O)[C@H](CO)NC(=O)[C@H](CCC(N)=O)NC(=O)[C@H](Cc2cncnc2)NC(=O)[C@@](C)(CC(=O)O)NC(=O)[C@H](Cc2c[nH]c3ccccc23)NC(=O)[C@H](CO)NC(=O)C(C)(C)NC1=O` [Example 161] (cyclo([Bip(4'-COOH)][4Pal][Phe(4-COOH)]G[cisHyp][Trp(βS-Me,4-F)][Aib]SW[d(αMeD)][Ala(pyrimidin-5-yl)]QSG[dPro(4R-(4-pyridylmethyl))])), the IC50 came out at 0.019 nM.

Consider `C[C@@H](c1c[nH]c2cccc(F)c12)[C@@H]1NC(=O)[C@@H]2C[C@H](F)CN2C(=O)CNC(=O)[C@H](Cc2ccc(C(=O)O)cc2)NC(=O)[C@H](CC2CCC2)NC(=O)[C@H](Cc2ccc(-c3ccc(C(=O)O)cc3)cc2)NC(=O)[C@H]2C[C@@H](Cc3ccncc3)CN2C(=O)CNC(=O)[C@H](CCN)NC(=O)[C@H](CCC(N)=O)NC(=O)[C@H](Cc2cncnc2)NC(=O)C(C)(C)NC(=O)[C@H](Cc2c[nH]c3ccccc23)NC(=O)[C@H](CO)NC(=O)C(C)(C)NC1=O` [Example 163] (cyclo([Bip(4'-COOH)][Cba][Phe(4-COOH)]G[Pro(cis-4-F)][Trp(βS-Me,4-F)][Aib]SW[Aib][Ala(pyrimidin-5-yl)]Q[Dab]G[dPro(4R-(4-pyridylmethyl))])), for which the IC50 is 0.03 nM.

In the case of `C[C@@H](c1c[nH]c2cccc(F)c12)[C@@H]1NC(=O)[C@@H]2C[C@H](O)CN2C(=O)CNC(=O)[C@H](Cc2ccc(C(=O)O)cc2)NC(=O)[C@H](CC2CCC2)NC(=O)[C@H](Cc2ccc(-c3ccc(C(=O)O)cc3)cc2)NC(=O)[C@H]2C[C@@H](Cc3ccncc3)CN2C(=O)CNC(=O)[C@H](CCN)NC(=O)[C@H](CCC(N)=O)NC(=O)[C@H](Cc2cncnc2)NC(=O)[C@@](C)(CC(=O)O)NC(=O)[C@H](Cc2c[nH]c3ccccc23)NC(=O)[C@H](CO)NC(=O)C(C)(C)NC1=O` [Example 164] (cyclo([Bip(4'-COOH)][Cba][Phe(4-COOH)]G[cisHyp][Trp(βS-Me,4-F)][Aib]SW[d(αMeD)][Ala(pyrimidin-5-yl)]Q[Dab]G[dPro(4R-(4-pyridylmethyl))])), the IC50 was 0.039 nM.

As for `C[C@@H](c1c[nH]c2cccc(F)c12)[C@@H]1NC(=O)[C@@H]2C[C@H](F)CN2C(=O)CNC(=O)[C@H](Cc2ccc(C(=O)O)cc2)NC(=O)[C@H](CC23CC(C2)C3)NC(=O)[C@H](Cc2ccc(-c3ccc(C(=O)O)cc3)cc2)NC(=O)[C@H]2C[C@@H](Cc3ccc(F)cc3)CN2C(=O)CNC(=O)[C@H](CCN)NC(=O)[C@H](CCC(N)=O)NC(=O)[C@H](CN2CCOCC2)NC(=O)[C@](C)(CCCCN)NC(=O)[C@H](Cc2c[nH]c3ccccc23)NC(=O)[C@H](CCC(=O)O)NC(=O)C(C)(C)NC1=O` [Example 165] (cyclo([Bip(4'-COOH)][Ala(1-bicyclo(1.1.1)pentyl)][Phe(4-COOH)]G[Pro(cis-4-F)][Trp(βS-Me,4-F)][Aib]EW[αMeK][Ala(morpholin-4-yl)]Q[Dab]G[dPro(4R-Bzl(4-F))])), the concentration for half-maximal inhibition (IC50) amounted to 0.022 nM.

With `C[C@@H](c1c[nH]c2cccc(F)c12)[C@@H]1NC(=O)[C@@H]2C[C@H](F)CN2C(=O)CNC(=O)[C@H](Cc2ccc(C(=O)O)cc2)NC(=O)[C@H](CC23CC(C2)C3)NC(=O)[C@H](Cc2ccc(-c3ccc(C(=O)O)cc3)cc2)NC(=O)[C@H]2C[C@@H](Cc3ccc(F)cc3)CN2C(=O)CNC(=O)[C@H](CCN)NC(=O)[C@H](CCC(N)=O)NC(=O)[C@H](CC2CCNCC2)NC(=O)[C@](C)(CCCCN)NC(=O)[C@H](Cc2c[nH]c3ccccc23)NC(=O)[C@H](CCC(=O)O)NC(=O)C(C)(C)NC1=O` [Example 166] (cyclo([Bip(4'-COOH)][Ala(1-bicyclo(1.1.1)pentyl)][Phe(4-COOH)]G[Pro(cis-4-F)][Trp(βS-Me,4-F)][Aib]EW[αMeK][Ala(piperidin-4-yl)]Q[Dab]G[dPro(4R-Bzl(4-F))])), the IC50 was 0.039 nM.

On to `C[C@@H](c1c[nH]c2cccc(F)c12)[C@@H]1NC(=O)[C@@H]2C[C@H](F)CN2C(=O)CNC(=O)[C@H](Cc2ccc(C(=O)O)cc2)NC(=O)[C@H](CC23CC(C2)C3)NC(=O)[C@H](Cc2ccc(-c3ccc(C(=O)O)cc3)cc2)NC(=O)[C@H]2C[C@@H](Cc3ccc(F)cc3)CN2C(=O)CNC(=O)[C@H](CCN)NC(=O)[C@H](CCC(N)=O)NC(=O)[C@H](CN2CCOCC2)NC(=O)C(C)(C)NC(=O)[C@H](Cc2c[nH]c3ccccc23)NC(=O)[C@H](CO)NC(=O)C(C)(C)NC1=O` [Example 167] (cyclo([Bip(4'-COOH)][Ala(1-bicyclo(1.1.1)pentyl)][Phe(4-COOH)]G[Pro(cis-4-F)][Trp(βS-Me,4-F)][Aib]SW[Aib][Ala(morpholin-4-yl)]Q[Dab]G[dPro(4R-Bzl(4-F))])), for which the IC50 is 0.013 nM.

Regarding `C[C@@H](c1c[nH]c2cccc(F)c12)[C@@H]1NC(=O)[C@@H]2C[C@H](F)CN2C(=O)CNC(=O)[C@H](Cc2ccc(C(=O)O)cc2)NC(=O)[C@H](CC23CC(C2)C3)NC(=O)[C@H](Cc2ccc(-c3ccc(C(=O)O)cc3)cc2)NC(=O)[C@H]2C[C@@H](Cc3ccc(F)cc3)CN2C(=O)CNC(=O)[C@H](CCN)NC(=O)[C@H](CCC(N)=O)NC(=O)[C@H](CN2CCNCC2)NC(=O)C(C)(C)NC(=O)[C@H](Cc2c[nH]c3ccccc23)NC(=O)[C@H](CO)NC(=O)C(C)(C)NC1=O` [Example 168] (cyclo([Bip(4'-COOH)][Ala(1-bicyclo(1.1.1)pentyl)][Phe(4-COOH)]G[Pro(cis-4-F)][Trp(βS-Me,4-F)][Aib]SW[Aib][Ala(piperazin-1-yl)]Q[Dab]G[dPro(4R-Bzl(4-F))])), the IC50 amounted to 0.018 nM.

For `C[C@@H](c1c[nH]c2cccc(F)c12)[C@@H]1NC(=O)[C@@H]2C[C@H](F)CN2C(=O)CNC(=O)[C@H](Cc2ccc(C(=O)O)cc2)NC(=O)[C@H](CC23CC(C2)C3)NC(=O)[C@H](Cc2ccc(-c3ccc(C(=O)O)cc3)cc2)NC(=O)[C@H]2C[C@@H](Cc3ccc(F)cc3)CN2C(=O)CNC(=O)[C@H](CCN)NC(=O)[C@H](CCC(N)=O)NC(=O)[C@H](CC2CCNCC2)NC(=O)C(C)(C)NC(=O)[C@H](Cc2c[nH]c3ccccc23)NC(=O)[C@H](CO)NC(=O)C(C)(C)NC1=O` [Example 169] (cyclo([Bip(4'-COOH)][Ala(1-bicyclo(1.1.1)pentyl)][Phe(4-COOH)]G[Pro(cis-4-F)][Trp(βS-Me,4-F)][Aib]SW[Aib][Ala(piperidin-4-yl)]Q[Dab]G[dPro(4R-Bzl(4-F))])), the IC50 turned out to be 0.019 nM.
